Key:
Aspergillus brasiliensis = test: impregnated test swatch kill test; assay type: cell-based; settings: swatches impregnated with 2.5% BENZ; within 1 hour
Method: (§1) Test swatches which had been impregnated with 2.5% BENZ were exposed to Staphylococcus aureus, Pseudomonas aeruginosa, and Aspergillus brasiliensis. A stack of two swatches was placed in a petri dish and then inoculated with 1.000 mL of an inoculum for one of the microorganisms. Following inoculation, the petri dishes were sealed and placed in a plastic bag/container, then incubated at optimal conditions for the given microorganism. Swatches were harvested at 0, 10 minutes, 30 minutes, 1 hour, and 6 hours after inoculation. At harvesting, the swatch was transferred to a neutralization media, then vortex mixed for 1-2 minutes. The neutralization suspension was […] and plated for 18-24 hours for bacteria and 24-72 hours for fungi at optimal incubation conditions.

Pseudomonas aeruginosa = test: impregnated test swatch kill test; assay type: cell-based; settings: swatches impregnated with 2.5% BENZ; within 10 minutes
Method: as §1

Staphylococcus aureus = test: impregnated test swatch kill test; assay type: cell-based; settings: swatches impregnated with 2.5% BENZ; within 30 minutes
Method: as §1

[1] = stability study of BENZ solution; assay type: physicochemical
Method: A stability study was conducted. A BENZ solution was stored for 14 days at 54° C. At Day 0, the samples contained an average of 20.26% BENZ. At Day 14, the samples contained an average of 19.97% BENZ.

[2] = tested on: Rhinovirus 37, 151-1 strain, ATCC VR-1607; test: impregnated filter medium virucidal test (TCID50 in MRC-5 cells); assay type: cell-based; settings: filter medium impregnated with 2.5% BENZ; contact time 30 minutes, 24.7-24.9° C., 39.9-40.5% relative humidity
Method: Next, a filter medium impregnated with 2.5% BENZ was exposed to a 0.200 mL volume of Rhinovirus 37, 151-1 strain, ATCC VR-1607 for a contact time of 30 minutes at 24.7-24.9° C. and 39.9-40.5% relative humidity. After 30 minutes, the filter medium was transferred to a neutralization medium and vortexed for at least 15 seconds. A 0.1 mL aliquot was removed and a series of 10-fold dilutions was performed in 0.9 mL aliquots of test medium. Each dilution was inoculated into MRC-5 cells. Viral titer was then calculated.

skin of guinea pigs = settings: guinea pig, in vivo
Method: Next, 10 guinea pigs were used to test for delayed dermal contact sensitization according to ISO 10993-10, Part 10. A wet gauze patch (25 mm×25 mm) treated with 20% BENZ was applied to the intact skin of each guinea pick for six hours (±30 minutes), three times a week, over a three-week period for a total of nine applications. After a two-week recovery period, the gauze patch was applied again. The skin was then observed for evidence of dermal reaction at 24 and 48 hours after patch removal. […] This test was performed a total of three times with different guinea pigs, and the same results were obtained each time.

[3] = tested on: Influenza A virus, A/PR/8/34 strain, ATCC VR-1469; assay type: cell-based; settings: filter medium impregnated with 2.5% BENZ; similar experiment (contact time 30 minutes)
rats = test: single-dose oral gavage toxicity in rats; assay type: in vivo; settings: single gavage dose of liquid containing 20% BENZ, 5 g/kg body weight
Excerpt: Five rats (Rattus norvegicus) weighing 244 to 272 grams were gavaged with a single dose of liquid containing 20% N-chloro-4-carboxybenzenesulfonamide (BENZ) at a dosage of 5 g/kg body weight.

bovine corneas = test: bovine corneal opacity and permeability (BCOP) test for ocular irritation; settings: 0.75 mL of 20% BENZ solution, 10 minutes exposure, three bovine corneas
Method: A bovine corneal opacity and permeability (BCOP) test was performed to determine the potential for ocular irritation.
Each dissected cornea was mounted in a holder that separated into anterior and posterior chambers. The two chambers were filled with a MEM solution, and an opacitometer was used to measure the opacity of the cornea. Next, the MEM solution was removed from the anterior chamber, and the epithelium of three bovine corneas were exposed to 0.75 mL of a 20% BENZ solution for 10 minutes in a manner that covered the entire cornea. The two chambers were then rinsed and refilled with fresh MEM solution. The corneas were then incubated at 32° C. for two hours, and the two chambers were again rinsed and refilled with fresh MEM solution. The opacity was measured again. The MEM solution was then removed from the anterior chamber and the anterior chamber was filled with 1.0 mL of 0.4% sodium fluorescein in Dulbecco's phosphate-buffered saline. After 90 minutes, the fluid in the posterior chamber was removed and the amount of dye that passed through the cornea was measured as the optical density at 490 nm by spectrophotometer. The In Vitro Irritancy Score (IVIS) was calculated to be −0.67, which is a perfect score.

Candida auris = test: impregnated test swatch kill test; assay type: cell-based; settings: stack of four swatches impregnated with 2.5% BENZ; within 1 hour
skin of rabbits = test: primary skin irritation according to ISO 10993-10, Part 10; assay type: in vivo, rabbit; settings: abraded skin, gauze patches treated with 20% BENZ for 24 hours, observed 1, 24, 48 and 72 hours after patch removal
Method: Next, three rabbits were used for evaluation of primary skin irritation according to ISO 10993-10, Part 10. Two wet gauze patches (25 mm×25 mm) treated with 20% BENZ were applied to the skin of each rabbit in different locations. Each application site was abraded with four parallel epidermal abrasions prior to application of the treated gauze patch. The treated gauze was secured in place for 24 hours, then removed. The skin was then observed for erythema and edema at 1, 24, 48, and 72 hours after patch removal.

O=C(O)c1ccc(S(=O)(=O)NCl)cc1 [BENZ, N-chloro-4-carboxybenzenesulfonamide]
kill (Aspergillus brasiliensis): 99.9%
kill (Pseudomonas aeruginosa): 99.999%
kill (Staphylococcus aureus): 99.999%
average BENZ content of samples ([1]; Day 0, BENZ solution): 20.26%
average BENZ content of samples ([1]; Day 14, stored at 54° C.): 19.97%
reduction in viral titer [2]: > 99.997%
delayed dermal contact sensitization (skin of guinea pigs): No evidence was found of delayed dermal contact sensitization
reduction in viral titer [3]: > 100%
survival after seven days (rats): all five rats were still alive
In Vitro Irritancy Score (IVIS) (bovine corneas): −0.67
kill (Candida auris): 99.998%
erythema and edema (skin of rabbits): no erythema or edema observed
